Experimental data published in publication PMC12892976, “Alkylation-based optimization of antifungal FPPS inhibitors yields a potent, broad-spectrum lipophilic zoledronate derivative” (mBio, 2025).
Read-outs that look alike come from different tables or passages of the source.

Assays:
Aspergillus flavus [1] = assay: MIC/MFC broth microdilution (CLSI); settings: ATCC204304
Protocol: (§1) Antifungal susceptibility was determined by broth microdilution according to the CLSI guidelines described in M27-Ed4 ([16]). […] MFC was determined by back-plating drug-treated cultures from MIC broths onto SDA plates. The MFC was defined as the lowest concentration from which no colonies could be cultured.

Candida glabrata [2] = assay: checkerboard drug interaction (FICI, MICc);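 on all read-outs here: simplified diagonal checkerboard screen pairing antifungals with FPPS inhibitors, FICI calculated under the Loewe additivity model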; assay type: cell-based; settings: C. glabrata; for INH FD (MIC-MICc fold decrease): fold decrease of inhibitor MIC
Protocol: (§2) Drug interactions between antifungals and FPPS inhibitors were investigated using a simplified checkerboard diagonal screening method ([45]). […] FICIs were determined according to the Loewe additivity model ([17]).

[3] = test system: Cryptococcus deuterogattii; assay: MIC/MFC broth microdilution (CLSI); settings: Cryptococcus deuterogattii;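 further: broth microdilution per CLSI M27-Ed4. MFC is the lowest concentration yielding no colonies when MIC broths are subcultured onto SDA plates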
Protocol: as §1

Cryptococcus neoformans [4] = assay: checkerboard drug interaction (FICI, MICc);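 on all read-outs here: antifungal plus FPPS inhibitor pairs tested against Cryptococcus neoformans by simplified diagonal checkerboard screening, FICI computed under the Loewe additivity model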; assay type: cell-based; settings: C. neoformans; for INH FD (MIC-MICc fold decrease): fold decrease of inhibitor MIC
Protocol: as §2

Cryptococcus neoformans [5] = assay: MIC/MFC broth microdilution (CLSI); settings: Cryptococcus neoformans;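 further: susceptibility testing followed the CLSI M27-Ed4 broth microdilution document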
Protocol: as §1

Saccharomyces cerevisiae [6] = assay: checkerboard drug interaction (FICI, MICc);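 on all read-outs here: simplified diagonal checkerboard screen pairing antifungals with FPPS inhibitors, FICI calculated under the Loewe additivity model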; assay type: cell-based; set-up: INH MICc / INH MICc (ITR:INH) / INH MICc (KET:INH) / INH MICc (FLC:INH): unit not given beside the values; settings: S. cerevisiae; for INH FD (MIC-MICc fold decrease): fold decrease of inhibitor MIC
Candida glabrata [7] = assay: MIC/MFC broth microdilution (CLSI); settings: Nakaseomyces glabratus, CBS138;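 further: broth microdilution following CLSI M27-Ed4, MFC taken as the lowest drug level yielding no growth once MIC wells were subcultured on SDA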
Protocol: as §1

Aspergillus fumigatus [8] = assay: checkerboard drug interaction (FICI, MICc);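 on all read-outs here: simplified diagonal checkerboard screen pairing antifungals with FPPS inhibitors against Aspergillus fumigatus, with FICI calculated under the Loewe additivity model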; assay type: cell-based; settings: A. fumigatus; for INH FD (MIC-MICc fold decrease): fold decrease of inhibitor MIC
Protocol: as §2

Trichophyton rubrum [9] = assay: MIC/MFC broth microdilution (CLSI); settings: Trichophyton rubrum
Protocol: as §1

Saccharomyces cerevisiae [10] = assay: MIC/MFC broth microdilution (CLSI); assay type: cell-based; settings: Saccharomyces cerevisiae S288c
Protocol: as §1

HEK-293T cells = assay: MTT reduction cytotoxicity assay; assay type: cell-based; settings: Homo sapiens, HEK-293T, 72 h, HEK-293T, MTT, 72 h; read-out: HEK IC50
[11] = test system: Cryptococcus deuterogattii; assay: checkerboard drug interaction (FICI, MICc);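 on all read-outs here: simplified diagonal checkerboard screen pairing antifungal drugs with FPPS inhibitors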; assay type: cell-based; settings: C. deuterogattii; for INH FD (MIC-MICc fold decrease): fold decrease of inhibitor MIC
Protocol: as §2

eight fungal species [12] = assay: checkerboard interaction with azoles, summary across the eight species; assay type: cell-based; settings: geometric mean MIC in combination with azoles
Source text: Synergy between lipophilic FPPS inhibitors and azole antifungals was investigated by determining the fractional inhibitory concentration index (FICI) (Fig. 2; Table S1 Fig. S1) ([17]). […]. Derivatives PLA9 and 11, and PDA9, 11, and 12 antagonized azoles in C. albicans, C. neoformans, and C. deuterogattii, yet were largely synergistic in C. glabrata and S. cerevisiae. […].

Aspergillus fumigatus [13] = assay: MIC/MFC broth microdilution (CLSI); settings: ATCC204305
Protocol: as §1

Trichophyton rubrum [14] = assay: checkerboard drug interaction (FICI, MICc);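 further: simplified diagonal checkerboard screen pairing azole antifungals with FPPS inhibitors, FICI calculated under the Loewe additivity model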; assay type: cell-based; settings: T. rubrum
Protocol: as §2

eight fungal species [15] = assay: MIC/MFC summary across the eight fungal species of Table 1; assay type: cell-based
Protocol: The antifungal activity of these compounds was evaluated according to CLSI guidelines ([16]).

Candida albicans [16] = assay: MIC/MFC broth microdilution (CLSI); assay type: cell-based; settings: Candida albicans SC5314
Protocol: as §1

Candida albicans [17] = assay: checkerboard drug interaction (FICI, MICc);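 on all read-outs here: antifungal plus FPPS inhibitor combinations on Candida albicans tested by a simplified diagonal checkerboard screen, with FICI calculated under the Loewe additivity model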; assay type: cell-based; settings: C. albicans; for INH FD (MIC-MICc fold decrease): fold decrease of inhibitor MIC
Protocol: as §2

Aspergillus flavus [18] = assay: checkerboard drug interaction (FICI, MICc);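 further: simplified diagonal checkerboard screen pairing azole antifungals with FPPS inhibitors, FICI calculated under the Loewe additivity model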; assay type: cell-based; set-up: INH MICc (KET:INH) / INH MICc (FLC:INH): unit not given beside the values; settings: A. flavus
[19] = FLC:INH combination, MIC of the inhibitor in combination with FLC
[20] = FLC:INH combination, fold decrease of FLC MIC
[21] = ITR:INH combination, MIC of the inhibitor in combination with ITR
[22] = ITR:INH combination, fold decrease of ITR MIC
[23] = KET:INH combination, MIC of the inhibitor in combination with KET
[24] = KET:INH combination, fold decrease of KET MIC
[25] = FLC:INH combination, MIC of FLC in combination with the inhibitor
[26] = ITR:INH combination, MIC of ITR in combination with the inhibitor
[27] = KET:INH combination, MIC of KET in combination with the inhibitor
[28] = Fractional Inhibitory Concentration Index, fluconazole + inhibitor
[29] = Fractional Inhibitory Concentration Index, itraconazole + inhibitor
[30] = Fractional Inhibitory Concentration Index, ketoconazole + inhibitor
[31] = MIC of the inhibitor in combination with fluconazole
[32] = MIC of the inhibitor in combination with itraconazole
[33] = MIC of the inhibitor in combination with ketoconazole
[34] = MIC-MICc fold decrease of fluconazole, negative = increase
[35] = MIC-MICc fold decrease of itraconazole, negative = increase
[36] = MIC-MICc fold decrease of ketoconazole, negative = increase
[37] = MIC-MICc fold decrease of the inhibitor, with fluconazole
[38] = MIC-MICc fold decrease of the inhibitor, with itraconazole
[39] = MIC-MICc fold decrease of the inhibitor, with ketoconazole

## CCCCCCCCCCCN1CCC[C@H]1C(=O)N[C@@H](CC(=O)O)C(=O)O [PLA11]
Aspergillus flavus [1]
  MFC: > 128 µg/mL
  MIC: > 128 µg/mL
Candida glabrata [2]; FLC:INH combination
  FICI: 0.28
  INH FD (MIC-MICc fold decrease): 64
Candida glabrata [2]; [19]
  INH MICc: 4
Candida glabrata [2]; [20]
  FLC FD (MIC-MICc fold decrease): 4
Candida glabrata [2]; ITR:INH combination
  FICI: 0.27
  INH FD (MIC-MICc fold decrease): 128
Candida glabrata [2]; [21]
  INH MICc: 2
Candida glabrata [2]; [22]
  ITR FD (MIC-MICc fold decrease): 4
Candida glabrata [2]; KET:INH combination
  FICI: 0.27
  INH FD (MIC-MICc fold decrease): 128
Candida glabrata [2]; [23]
  INH MICc: 2
Candida glabrata [2]; [24]
  KET FD (MIC-MICc fold decrease): 4
[3]
  MFC: > 128 µg/mL
  MIC: > 128 µg/mL
Cryptococcus neoformans [4]; FLC:INH combination
  FICI: ≥4
  INH FD (MIC-MICc fold decrease): 1
Cryptococcus neoformans [4]; [19]
  INH MICc: 256
Cryptococcus neoformans [4]; [20]
  FLC FD (MIC-MICc fold decrease): < -4
Cryptococcus neoformans [4]; ITR:INH combination
  FICI: ≥4
  INH FD (MIC-MICc fold decrease): 1
Cryptococcus neoformans [4]; [21]
  INH MICc: 256
Cryptococcus neoformans [4]; [22]
  ITR FD (MIC-MICc fold decrease): < -4
Cryptococcus neoformans [4]; KET:INH combination
  FICI: ≥4
  INH FD (MIC-MICc fold decrease): 2
Cryptococcus neoformans [4]; [23]
  INH MICc: 128
Cryptococcus neoformans [4]; [24]
  KET FD (MIC-MICc fold decrease): -4
Cryptococcus neoformans [5]
  MFC: > 128 µg/mL
  MIC: > 128 µg/mL
Saccharomyces cerevisiae [6]; FLC:INH combination
  FICI: 0.31
  INH FD (MIC-MICc fold decrease): 16
Saccharomyces cerevisiae [6]; [25]
  FLC MICc: 1
Saccharomyces cerevisiae [6]; [19]
  INH MICc: 16
Saccharomyces cerevisiae [6]; [20]
  FLC FD (MIC-MICc fold decrease): 4
Saccharomyces cerevisiae [6]; ITR:INH combination
  FICI: 0.38
  INH FD (MIC-MICc fold decrease): 8
Saccharomyces cerevisiae [6]; [26]
  ITR MICc: 0.063
Saccharomyces cerevisiae [6]; [21]
  INH MICc: 32
Saccharomyces cerevisiae [6]; [22]
  ITR FD (MIC-MICc fold decrease): 4
Saccharomyces cerevisiae [6]; KET:INH combination
  FICI: 0.28
  INH FD (MIC-MICc fold decrease): 32
Saccharomyces cerevisiae [6]; [27]
  KET MICc: 0.5
Saccharomyces cerevisiae [6]; [23]
  INH MICc: 8
Saccharomyces cerevisiae [6]; [24]
  KET FD (MIC-MICc fold decrease): 4
Candida glabrata [7]
  MFC: > 128 µg/mL
  MIC: > 128 µg/mL
Aspergillus fumigatus [8]; FLC:INH combination
  FICI: 2
  INH FD (MIC-MICc fold decrease): 1
Aspergillus fumigatus [8]; [25]
  FLC MICc: 128
Aspergillus fumigatus [8]; [19]
  INH MICc: 256
Aspergillus fumigatus [8]; [20]
  FLC FD (MIC-MICc fold decrease): 1
Aspergillus fumigatus [8]; ITR:INH combination
  FICI: 0.51
  INH FD (MIC-MICc fold decrease): 128
Aspergillus fumigatus [8]; [26]
  ITR MICc: 0.063
Aspergillus fumigatus [8]; [21]
  INH MICc: 2
Aspergillus fumigatus [8]; [22]
  ITR FD (MIC-MICc fold decrease): 2
Aspergillus fumigatus [8]; KET:INH combination
  FICI: 1.5
  INH FD (MIC-MICc fold decrease): 2
Aspergillus fumigatus [8]; [27]
  KET MICc: 4
Aspergillus fumigatus [8]; [23]
  INH MICc: 128
Aspergillus fumigatus [8]; [24]
  KET FD (MIC-MICc fold decrease): 1
Trichophyton rubrum [9]
  MFC: > 128 µg/mL
  MIC: > 128 µg/mL
Saccharomyces cerevisiae [10]
  MFC: > 128 µg/mL
  MIC: > 128 µg/mL
HEK-293T cells
  IC50: > 256 µg/mL
[11]; FLC:INH combination
  FICI: ≥4
  INH FD (MIC-MICc fold decrease): 1
[11]; [19]
  INH MICc: 256
[11]; [20]
  FLC FD (MIC-MICc fold decrease): -4
[11]; ITR:INH combination
  FICI: ≥4
  INH FD (MIC-MICc fold decrease): 2
[11]; [21]
  INH MICc: 128
[11]; [22]
  ITR FD (MIC-MICc fold decrease): -4
[11]; KET:INH combination
  FICI: 1
  INH FD (MIC-MICc fold decrease): 2
[11]; [23]
  INH MICc: 128
[11]; [24]
  KET FD (MIC-MICc fold decrease): 2
Eight fungal species [12]
  GM fungal MICc: 55.4
Aspergillus fumigatus [13]
  MFC: > 128 µg/mL
  MIC: > 128 µg/mL
Trichophyton rubrum [14]; [28]
  FICI (FLC:INH): 3
Trichophyton rubrum [14]; [29]
  FICI (ITR:INH): 2
Trichophyton rubrum [14]; [30]
  FICI (KET:INH): 1.5
Trichophyton rubrum [14]; [31]
  INH MICc (FLC:INH): 256
Trichophyton rubrum [14]; [32]
  INH MICc (ITR:INH): 256
Trichophyton rubrum [14]; [33]
  INH MICc (KET:INH): 128
Trichophyton rubrum [14]; [34]
  FLC FD (FLC:INH): -2
Trichophyton rubrum [14]; [35]
  ITR FD (ITR:INH): 1
Trichophyton rubrum [14]; [36]
  KET FD (KET:INH): 1
Trichophyton rubrum [14]; [37]
  INH FD (FLC:INH): 1
Trichophyton rubrum [14]; [38]
  INH FD (ITR:INH): 1
Trichophyton rubrum [14]; [39]
  INH FD (KET:INH): 2
Eight fungal species [15]; across eight species, read-out: Geometric mean MFC
  MFC: > 128 µg/mL
Eight fungal species [15]; geometric mean across eight species, read-out: GM fungal MIC
  MIC: > 128 µg/mL
Eight fungal species [15]; read-out: Geometric mean MIC
  MIC: > 128 µg/mL
Candida albicans [16]
  MFC: > 128 µg/mL
  MIC: > 128 µg/mL
Candida albicans [17]; FLC:INH combination
  FICI: ≥4
  INH FD (MIC-MICc fold decrease): 1
Candida albicans [17]; [19]
  INH MICc: 256
Candida albicans [17]; [20]
  FLC FD (MIC-MICc fold decrease): -4
Candida albicans [17]; ITR:INH combination
  FICI: ≥4
  INH FD (MIC-MICc fold decrease): 1
Candida albicans [17]; [21]
  INH MICc: 256
Candida albicans [17]; [22]
  ITR FD (MIC-MICc fold decrease): -4
Candida albicans [17]; KET:INH combination
  FICI: ≥4
  INH FD (MIC-MICc fold decrease): 2
Candida albicans [17]; [23]
  INH MICc: 128
Candida albicans [17]; [24]
  KET FD (MIC-MICc fold decrease): < -4
Aspergillus flavus [18]; [28]
  FICI (FLC:INH): 0.75
Aspergillus flavus [18]; [29]
  FICI (ITR:INH): 0.52
Aspergillus flavus [18]; [30]
  FICI (KET:INH): 2
Aspergillus flavus [18]; [31]
  INH MICc (FLC:INH): 64
Aspergillus flavus [18]; [32]
  INH MICc (ITR:INH): 4
Aspergillus flavus [18]; [33]
  INH MICc (KET:INH): 256
Aspergillus flavus [18]; [34]
  FLC FD (FLC:INH): 2
Aspergillus flavus [18]; [35]
  ITR FD (ITR:INH): 2
Aspergillus flavus [18]; [36]
  KET FD (KET:INH): 1
Aspergillus flavus [18]; [37]
  INH FD (FLC:INH): 4
Aspergillus flavus [18]; [38]
  INH FD (ITR:INH): 64
Aspergillus flavus [18]; [39]
  INH FD (KET:INH): 1
